Experimental data: patent publication US20250049801A1, “PHARMACEUTICAL COMBINATIONS FOR USE IN THE TREATMENT OF NEOPLASTIC DISEASES” (priority 2021, published 2025)
Marks after values point to notes of the source that are not given here.

Experiments:
[1] = mouse, in vivo
Protocol: Dosing was delayed by 1 day in any mice showing transient body weight loss of ≥ 10% at any time point.
(§1) Body weights and tumor volumes were determined at least twice per week, the latter by measuring two dimensions with calipers and applying the formula “V=(L×W2)/2”, where V is the tumor volume, and L and W are the tumor length and width respectively. […] Mice were also culled if the BWL was determined to be >15% for 3 consecutive days. Any mice with >10% BWL, automatically were dosed on one of the following days, as soon as the BWL returned to <10%. All animal protocols were reviewed and approved by the relevant local committees in China, where the studies were performed.

TNBC BR1282 PDX model = experiment: Second PDX study, efficacy; type: in vivo, BALB/c nude mice; conditions: for Efficacy: ΔT/C Day 13: mean change in tumor volume on day 13; for Efficacy: ΔT/C Day 0 up to day 51: mean rate of growth (k), day 0 to culling day or day 51; for Cures By day 148: no tumors detectable by pathological confirmation at end of observation period, 8 mice per group
Protocol: (§2) The compound of formula (I) was supplied as a powder by Basilea Pharmaceutica International Ltd. and was prepared freshly as a solution in Ethanol: PEG400:Citric acid 20 mM, at a ratio of 1:1:8, for immediate administration.
(§3) The statistical significance of efficacy were determined in two different ways using a) the endpoint on day 16 or day 13 depending on the study when it was necessary to cull the vehicle group because of tumor volume exceeding 1500 mm3, and b) at the endpoint of day 42 or day 51 depending on the study (one week after the final treatment) when exponential curve fits were applied to estimate the rates of tumor growth in the different groups. Finally, the number of complete cures was compared across the groups following confirmation by histopathology within the first study. The degree of an effect was quantified by the delta (Δ) treated/control ratio (ΔT/C) and the statistical significance of the effect was determined by a one-way analysis of variance (1W-ANOVA) with Holms-Sidak applied post-hoc for multiple determinations, where a p-value of <0.05 was considered statistically significant. In addition, an assessment of synergy was made based upon the Clarkes Combination Index (CCI), where the CCI=ΔT/CAB−(ΔT/CA*ΔT/CB) in which A and B are two different compounds, where CCI<−0.1 indicates synergy (or a positive interaction), +0.1 (antagonism, or a negative interaction) and between −0.1 and +0.1 indicates additivity (no interaction); see O'Reilly et al. Anti Cancer Drugs 2011; 22:58-78.

[2] = for Tolerability (Day 16) ΔBW (%) / Tolerability (Day 16) ΔT/C: mouse, in vivo
Protocol: In a first PDX study female BALB/c nude mice (CrownBio) of at least 20 g body weight were subcutaneously (s.c.) inoculated in the right flank with tumor fragments (3*3*3 mm) from stock mice bearing the patient-derived xenograft (PDX) triple negative breast cancer (TNBC) tumor, BR1282. Randomization into 5 different treatment groups (8 mice per group) was made when the mean tumor size was 150-200 mm3. […] The fifth group received both vehicles using the time interval of 4 h and all groups were dosed twice via the tail vein. Dosing was delayed by 1 day in any mice showing transient body weight loss of ≥ 10% at any time point.
as §1

[3] = test system: patient-derived xenograft (PDX) triple negative breast cancer (TNBC) tumor, BR1282; experiment: First PDX study, efficacy; type: in vivo, BALB/c nude mice; conditions: for Efficacy: ΔT/C Day 16: mean change in tumor volume on day 16; for Efficacy: ΔT/C Day −0 up to Day 42: mean rate of growth (k), exponential curve fits, day 0 to culling day or day 42; for Cures Day 97: no tumors detectable by H&E staining of skin on day 97, N=8 mice/group
Protocol: as §2, §3

[4] = biological target: T1, TTK kinase domain (amino acids 519-808) (Homo sapiens, UniProt P33981); experiment: Target residence time assay (Biacore T200 surface plasmon resonance), TTK; type: binding; conditions: SPR, 22° C.
T1 construct: recombinant expressed TTK kinase domain (amino acids 519-808)
T1 sequence (P33981 519-808): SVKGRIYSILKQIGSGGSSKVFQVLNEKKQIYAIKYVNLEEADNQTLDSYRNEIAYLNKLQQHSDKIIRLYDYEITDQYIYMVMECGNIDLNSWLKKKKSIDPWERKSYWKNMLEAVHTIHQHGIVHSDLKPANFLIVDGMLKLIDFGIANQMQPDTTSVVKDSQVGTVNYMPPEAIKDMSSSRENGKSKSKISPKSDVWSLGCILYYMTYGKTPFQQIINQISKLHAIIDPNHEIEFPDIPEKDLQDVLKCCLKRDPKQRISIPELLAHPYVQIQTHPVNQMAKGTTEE
Protocol: (§4) The affinity, i.e. the equilibrium dissociation constant (KD) (referred to as residence times), of the compound of formula (I) against TTK and PLK1 were determined using a Biacore T200™ surface plasmon resonance instrument using recombinant expressed TTK kinase domain (amino acids 519-808) or biotinylated PLK1. The immobilization of TTK was performed as described in Maia et al. Annals of Oncology, 2015; 26:2180-2192. The immobilization of biotinylated PLK1 was performed as described in Willemsen-Seegers et al. Journal of Molecular Biology, 2017; 429:574-586. The subsequent single cycle kinetic assays were performed at 22° C. using a compound concentration gradient of 1, 3.6, 10, 31.6 and 100 nM for TTK and 10, 31.6, 100, 316 and 1000 nM for PLK1, a contact time of 100 s and a flow rate of […]. The dissociation period was 1200-1800 s and a correction for an unstable surface using a blank run with buffer was performed.

PLK1 [5] = biological target: T2, PLK1 (Homo sapiens, UniProt P53350); experiment: PLK1 kinase assay as described in WO 2015/155042; type: biochemical; conditions: when measured as described in WO 2015/155042
other kinase = experiment: Kinase specificity, other kinases versus TTK; type: biochemical
[6] = test system: patient-derived tumor xenografts, including TNBC and hepatocellular cancer (HCC) models; experiment: Patient-derived tumor xenografts in mice (data not shown); type: in vivo
From the text: (§5) In cellular systems, the compound of formula (I) has high potency against sensitive cells.

tumor-derived TTK = biological target: T3, tumor-derived TTK (Homo sapiens, UniProt P33981); experiment: Tumor TTK target occupancy in MDA-MB-231 xenograft-bearing mice; type: in vivo
T3 construct: from tissue; host or cells: MDA-MB-231 xenograft tumours from mice
T3 sequence (P33981 1-857): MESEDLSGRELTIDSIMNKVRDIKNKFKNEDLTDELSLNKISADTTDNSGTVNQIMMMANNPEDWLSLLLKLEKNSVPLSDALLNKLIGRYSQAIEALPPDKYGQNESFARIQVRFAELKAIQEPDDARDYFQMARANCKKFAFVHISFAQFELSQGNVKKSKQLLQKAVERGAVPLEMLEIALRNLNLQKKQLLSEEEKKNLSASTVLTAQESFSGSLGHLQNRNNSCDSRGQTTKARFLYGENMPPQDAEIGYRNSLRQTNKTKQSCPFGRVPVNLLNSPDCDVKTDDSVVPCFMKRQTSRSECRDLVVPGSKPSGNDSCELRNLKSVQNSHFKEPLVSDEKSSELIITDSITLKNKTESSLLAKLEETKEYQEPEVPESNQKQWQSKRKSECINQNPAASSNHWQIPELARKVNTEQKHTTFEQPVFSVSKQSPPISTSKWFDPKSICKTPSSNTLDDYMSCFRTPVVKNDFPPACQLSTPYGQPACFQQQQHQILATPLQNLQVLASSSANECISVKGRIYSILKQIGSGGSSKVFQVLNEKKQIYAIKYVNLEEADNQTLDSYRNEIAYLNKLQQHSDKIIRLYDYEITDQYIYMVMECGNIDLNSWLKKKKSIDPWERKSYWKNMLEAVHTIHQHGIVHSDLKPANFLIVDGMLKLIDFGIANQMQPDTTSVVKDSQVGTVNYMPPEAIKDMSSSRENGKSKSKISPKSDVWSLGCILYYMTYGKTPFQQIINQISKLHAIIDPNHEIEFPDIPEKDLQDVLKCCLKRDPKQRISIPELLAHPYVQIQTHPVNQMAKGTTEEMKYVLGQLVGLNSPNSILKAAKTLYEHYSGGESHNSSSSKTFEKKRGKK
Protocol: Prolonged TTK target occupancy was also measured in tumors derived from MDAMB-231 xenograft-bearing mice treated with intermittent i.v. dosing regimen of compound of formula (I). […]

PLK1 [7] = biological target: T2, PLK1; experiment: Radiometric protein kinase assay (33PanQinase Activity Assay), PLK1; type: biochemical; conditions: radiometric 33PanQinase assay; ATP 1 mM
Protocol: (§6) A radiometric protein kinase assay (33PanQinase® Activity Assay) was used for measuring the kinase activity of TTK and PLK1. TTK and PLK1 protein kinases were expressed as recombinant full-length GST-fusion proteins. The reaction cocktail contained […] of enzyme/substrate mixture. The assay for the protein kinases contained 70 mM HEPES-NaOH pH 7.5, 3 mM MgCl2, 3 mM MnCl2, 3 mM Na-orthovanadate, 1.2 mM DTT, […] PEG20000, ATP (0.3 mM for TTK and 1 mM for PLK1), [γ-33P]-ATP (approx. 8×10^5 cpm per well), protein kinase (15.8 nM for TTK and 5 nM for PLK1), and substrate (1 mg/50 mL for TTK and 2 mg/50 mL for PLK1). All assays were performed with a Beckman-Coulter/SAGIAN™ Core System. The fitting model for the IC50 determinations was “Sigmoidal response (variable slope)” with parameters “top” fixed at 100% and “bottom” at 0%. The fitting method used was a least squares fit.

TTK [8] = biological target: T4, TTK (Homo sapiens, UniProt P33981); experiment: TTK kinase assay as described in WO 2015/155042; type: biochemical; conditions: when measured as described in WO 2015/155042
T4 construct: TTK and PLK1 protein kinases were expressed as recombinant full-length GST-fusion proteins; GST
T4 sequence (P33981 1-857): T3 sequence (P33981 1-857)

[9] = Single-dose pharmacokinetic drug-drug interaction experiment; type: in vivo; conditions: 8 mg/kg i.v., 1 h after paclitaxel (15 mg/kg, i.v.); non tumor-bearing mice
[10] = test system: triple negative breast cancer cell lines; experiment: 5-day anti-proliferative screen of 18 triple negative breast cancer cell lines; type: cell-based; conditions: 120 h, 18 different triple negative breast cancer cell lines, read-out: median GI50
From the text: as §5

biotinylated PLK1 = biological target: T5, biotinylated PLK1 (Homo sapiens, UniProt P53350); experiment: Target residence time assay (Biacore T200 surface plasmon resonance), PLK1; type: binding; conditions: SPR, 22° C.
T5 construct: biotin (biotinylated)
Protocol: as §4

TTK [11] = biological target: T4, TTK; experiment: Radiometric protein kinase assay (33PanQinase Activity Assay), TTK; type: biochemical; conditions: radiometric 33PanQinase assay; ATP 0.3 mM
Protocol: as §6

T2 sequence (P53350 whole entry): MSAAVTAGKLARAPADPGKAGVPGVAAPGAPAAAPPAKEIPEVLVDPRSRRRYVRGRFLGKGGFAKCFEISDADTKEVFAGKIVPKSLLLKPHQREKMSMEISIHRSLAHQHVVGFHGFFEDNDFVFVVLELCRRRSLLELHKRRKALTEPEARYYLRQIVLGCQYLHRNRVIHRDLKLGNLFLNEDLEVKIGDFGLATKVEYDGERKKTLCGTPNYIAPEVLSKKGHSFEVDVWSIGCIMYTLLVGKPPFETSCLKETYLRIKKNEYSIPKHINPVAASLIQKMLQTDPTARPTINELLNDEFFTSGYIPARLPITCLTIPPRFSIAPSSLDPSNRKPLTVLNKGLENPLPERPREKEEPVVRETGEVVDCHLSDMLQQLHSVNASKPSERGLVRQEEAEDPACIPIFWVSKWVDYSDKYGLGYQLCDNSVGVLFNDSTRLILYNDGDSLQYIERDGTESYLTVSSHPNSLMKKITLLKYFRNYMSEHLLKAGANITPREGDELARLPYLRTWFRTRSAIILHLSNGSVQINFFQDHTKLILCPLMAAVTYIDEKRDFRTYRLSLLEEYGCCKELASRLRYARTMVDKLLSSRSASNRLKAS
T5 sequence (P53350 whole entry): as above

Row | SMILES | Tolerability (Day 13) ΔBW (%) [1] | Tolerability (Day 13) ΔT/C [1] | Efficacy: ΔT/C Day 13 (TNBC BR1282 PDX model) | Efficacy: ΔT/C Day 0 up to day 51 (TNBC BR1282 PDX model) | Cures By day 148 (TNBC BR1282 PDX model) | Tolerability (Day 16) ΔBW (%) [2] | Tolerability (Day 16) ΔT/C [2] | Efficacy: ΔT/C Day 16 [3] | Efficacy: ΔT/C Day −0 up to Day 42 [3] | Cures Day 97 [3] | further results
1 | CC(=O)O[C@H]1C(=O)[C@@]2(C)[C@H]([C@H](OC(=O)c3ccccc3)[C@]3(O)C[C@H](OC(=O)[C@H](O)[C@@H](NC(=O)c4ccccc4)c4ccccc4)C(C)=C1C3(C)C)[C@]1(OC(C)=O)CO[C@@H]1C[C@@H]2O [Paclitaxel, reference compound] | 4.9 ± 0.3% | 1.02 | 0.48 | 0.63*** | 0/8 | −1.0 ± 1.2% | 1.00 | 0.24 | 0.41*** | 0/8 | 
2 | COc1cc(N2CCNCC2)ccc1Nc1ncc2c(n1)-n1ccc(C(=O)Nc3c(C)cccc3C)c1CC2 [Compound of formula (I)] | −1.9 ± 1.4% | 0.93 | 0.32 | −0.02*** | 0/8 | −0.3 ± 1.4% | 1.01 | 0.45 | 0.28*** | 0/8 | target-residency on TTK [4]: > 12 h; IC50 (PLK1 [5]): 46 nM; other kinase IC50s higher than those for TTK (other kinase): at least 10 fold; animals indicating regression (TNBC BR1282 PDX model; day 51): 3/8; activity against patient-derived tumor xenografts [6]: significant activity; mortality ([2]; day 21, considered non-drug-related): one mouse died; time TTK completely occupied after last dose (tumor-derived TTK; i.v. twice-weekly, MTD dose): at least 72 h; time tumor-derived TTK fully drug-occupied after last administration (tumor-derived TTK; i.v. weekly MTD dosing): up to 6 days; IC50 (PLK1 [7]): 72 nM; IC50 (TTK [8]): 0.4 nM; change in plasma AUC of the compound of formula (I) [9]: slight nonsignificant increase; GI50 [10]: 35 nM; target-residency on PLK1 (biotinylated PLK1): a few minutes; IC50 (TTK [11]): 7 nM
